Measured values from PubChem BioAssay (NCI).
Several values for one entry are separate records, joined by “and”; a condition that tells them apart may be missing. Equal entries are not always repeated.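 Assay format: 96-well plates, 48-hour exposure. GI50 marks 50% less growth. Definition used: TGI = concentration required for complete inhibition of growth.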

Tests used:
Test in all cases: growth of human tumour cells (NCI), 48 h
[1] = test system: ACHN renal
[2] = test system: K-562 leukemia
[3] = test system: M14 melanoma
[4] = test system: MDA-MB-435
[5] = test system: NCI/ADR-RES ovarian
[6] = test system: PC-3 prostate
[7] = test system: SK-OV-3 ovarian
[8] = test system: SN12C renal
[9] = test system: U251 CNS
[10] = test system: UACC-257 melanoma

SMILES	GI50 [1]	TGI [1]	GI50 [2]	TGI [2]	TGI [3]	GI50 [4]	TGI [4]	TGI [5]	GI50 [6]	TGI [6]	GI50 [7]	TGI [7]	GI50 [8]	TGI [8]	GI50 [9]	TGI [9]	GI50 [10]	TGI [10]	GI50 [3]	GI50 [5]
COc1cc2c3cc1Oc1c(OC)c(OC)cc4c1C(Cc1ccc(O)c(c1)Oc1ccc(cc1)CC3N(C)CC2)N(C)CC4 (stereo unspecified)	12.7 µM	34.9 µM and 44.1 µM	2.04 µM	> 100 µM and 12.9 µM	> 100 µM	6.7 µM	19.8 µM	> 100 µM	23.4 µM	> 100 µM	36.9 µM	91.2 µM and > 100 µM	23.4 µM	47.1 µM and > 100 µM	11.5 µM	69.4 µM and 28.9 µM	5.99 µM	> 100 µM and 18.9 µM	–	–
N#[N+]c1ccc(Nc2ccccc2)cc1	> 50 µg/mL	> 50 µg/mL	> 50 µg/mL	> 50 µg/mL	> 50 µg/mL	1.83 µg/mL	17.7 µg/mL	> 50 µg/mL	> 50 µg/mL	> 50 µg/mL	> 50 µg/mL	> 50 µg/mL	> 50 µg/mL	> 50 µg/mL	> 50 µg/mL	> 50 µg/mL	> 50 µg/mL	> 50 µg/mL	> 50 µg/mL	> 50 µg/mL
Cc1cc(S(N)(=O)=O)c(S/C(=N\NS(=O)(=O)c2ccccc2)c2ccc(Cl)cc2)cc1Cl	> 100 µM	> 100 µM	59 µM	> 100 µM	> 100 µM	> 100 µM	> 100 µM	> 100 µM	38.9 µM	> 100 µM	> 100 µM	> 100 µM	46.5 µM	> 100 µM	> 100 µM	> 100 µM	54.5 µM	> 100 µM	87.9 µM	> 100 µM
Nc1ncc2ncn(C3CCC(CO)O3)c2n1 (stereo unspecified)	–	> 100 µM	–	> 100 µM	> 100 µM	–	> 100 µM	> 100 µM	–	> 100 µM	–	> 100 µM	–	> 100 µM	–	> 100 µM	–	> 100 µM	–	–
Nn1c(-c2ccc(Cl)cc2)nc2c(-c3ccc(Cl)cc3)nc3ccc(Cl)cc3c2c1=O	5.42 µM	25.5 µM	11.4 µM	48.5 µM	> 100 µM	> 100 µM	> 100 µM	> 100 µM	60.7 µM	> 100 µM	14.5 µM	40.3 µM	7.46 µM	> 100 µM	3.07 µM	12.7 µM	25.2 µM	> 100 µM	15.1 µM	48.3 µM
CC1OC(OC2C(O)C(O)C(O)C(O)C2O)C(N)CC1N=C(N)C(=O)O (stereo unspecified)	–	> 100 µM	–	> 100 µM	> 100 µM	–	> 100 µM	> 100 µM	–	> 100 µM	–	> 100 µM	–	> 100 µM	–	> 100 µM	–	> 100 µM	–	–
CC[C@H]1OC(=O)[C@H](C)[C@@H](O[C@H]2C[C@@](C)(OC)[C@@H](O)[C@H](C)O2)[C@H](C)[C@@H](O[C@@H]2O[C@H](C)C[C@H](N(C)C)[C@H]2O)[C@](C)(OC)C/C(C)=C2/O[C@@]1(C)C=C2C	1.76 µM	3.15 µM	1.56 µM	4.8 µM	–	1.67 µM	3.15 µM	3.57 µM	1.68 µM	3.46 µM	1.91 µM	3.75 µM	1.64 µM	3.02 µM	1.75 µM	3.54 µM	1.83 µM	3.62 µM	–	1.77 µM
